Laboratory results published in US20240409886A1, “CULTURE MEDIUM COMPRISING DIPEPTIDES” (Evonik Operations GmbH, priority 2017, published 2024).
Residues, ends and D or L forms follow the SMILES beside them.

What was measured:
[1] = test system: antibody-producing Chinese Hamster Ovary (CHO) cell (subclone DG44); experiment: viable cell density in CHO cell culture with increasing Gln-Asn dipeptide (OFAT); type: cell-based
Method: The effect of the Gln-Asn dipeptide on an antibody-producing Chinese Hamster Ovary (CHO) cell (subclone DG44; Life Technologies Corporation, Carlsbad, USA) was investigated using one-factor-at-a-time (OFAT) analysis.
The analysis was based on a comparison of the viable cell density and cell viability in a series of cell cultures, which were conducted at substantially identical culturing conditions, however, with increasing amounts of the Gln-Asn dipeptide in the medium. In order to keep the total amounts of Asn and Gln units (molar basis) in the various culture media constant, the molar concentration of free glutamine and free asparagine was reduced in accordance with the molar amount of the dipeptide added. A series of culture media having increasing amounts of the Gln-Asn dipeptide was prepared by mixing varying amounts of a Base Medium (comprising free Asn and Gln) and a Test Medium (comprising Asn-Gln dipeptide). A commercially available defined cell culture medium (TC-42, TeutoCell AG, Bielefeld, Germany) served as the Base Medium. (Any other suitable cell culture medium could be used.) A Test Medium (TC-42-EVO) was prepared so as to have identical nutrient concentrations compared to the Base Medium, however, instead of free Asn the Test Medium contained an equimolar amount (5.4 mM) of Gin-Asn dipeptide. Furthermore, the free Gln concentration in the Test Medium was set to a value such that the total concentration of Gln units in the Test Medium (i.e., free Gln and dipeptide-Gln) matched the concentration of free Gln in the Base Medium. All other nutrient concentrations in the Test Medium were the same as in the Base Medium. The Base Medium contained 1461.5 mg/l free Gln and 612 mg/l free Asn.
Six cell cultivations were then conducted with media containing varying amounts of the Test Medium and the Base Medium in the following proportions:
All media were set to pH 8.3. Salinity of the culture media was set to 285 mOsmol/kg with NaCl. All cultivations were conducted in on a rotary shaker under identical culture conditions (temperature, humidity, rpm, CO2, etc.), using standard cell culture methods. Three passages of a cell culture are conducted and viable cell density (VCD; 10^6 viable cells/ml) and cell viability (%) was followed in duplicate determinations, using […] determination.
A correlation of the maximum viable cell density (third passage) with the concentration of the dipeptide is observed. The greatest maximum viable cell density is obtained in cultivation #1, i.e., in the cultivation in which all Asn is provided in the form of the Asn-containing dipeptide. The lowest maximum viable cell density is obtained in cultivation #6, i.e., in the cultivation in which all of the Asn in provided as free amino acid. Furthermore, it can be seen that the increased viable cell density is maintained over an extended period of time (day 13 through day 18).

[2] = test system: antibody-producing Chinese Hamster Ovary (CHO) cell (subclone DG44)
Method: The analysis was based on a comparison of the viable cell density and cell viability in a series of cell cultures, which were conducted at substantially identical culturing conditions, however, with increasing amounts of the Gln-Asn dipeptide in the medium. In order to keep the total amounts of Asn and Gln units (molar basis) in the various culture media constant, the molar concentration of free glutamine and free asparagine was reduced in accordance with the molar amount of the dipeptide added. A series of culture media having increasing amounts of the Gln-Asn dipeptide was prepared by mixing varying amounts of a Base Medium (comprising free Asn and Gln) and a Test Medium (comprising Asn-Gln dipeptide). A commercially available defined cell culture medium (TC-42, TeutoCell AG, Bielefeld, Germany) served as the Base Medium. […] Furthermore, the free Gln concentration in the Test Medium was set to a value such that the total concentration of Gln units in the Test Medium (i.e., free Gln and dipeptide-Gln) matched the concentration of free Gln in the Base Medium. All other nutrient concentrations in the Test Medium were the same as in the Base Medium. […]

## NC(=O)CC[C@H](N)C(=O)N[C@@H](CC(N)=O)C(=O)O [Gln-Asn, L-glutaminyl-L-asparagine] (H-Gln-Asn-OH)
[1]; 0.3 mM dipeptide (#5), time 0
  viable cell density: 0.285 10^6 cells/ml
[1]; 0.3 mM dipeptide (#5), time 0.89
  viable cell density: 0.485 10^6 cells/ml
[1]; 0.3 mM dipeptide (#5), time 3.08
  viable cell density: 1.985 10^6 cells/ml
[1]; 0.3 mM dipeptide (#5), time 3.71
  viable cell density: 3.325 10^6 cells/ml
[1]; 0.3 mM dipeptide (#5), time 4.08
  viable cell density: 0.265 10^6 cells/ml
[1]; 0.3 mM dipeptide (#5), time 4.70
  viable cell density: 1.12 10^6 cells/ml
[1]; 0.3 mM dipeptide (#5), time 5.69
  viable cell density: 1.555 10^6 cells/ml
[1]; 0.3 mM dipeptide (#5), time 6.88
  viable cell density: 3.8 10^6 cells/ml
[1]; 0.3 mM dipeptide (#5), time 7.04
  viable cell density: 0.31 10^6 cells/ml
[1]; 0.3 mM dipeptide (#5), time 7.80
  viable cell density: 1.17 10^6 cells/ml
[1]; 0.3 mM dipeptide (#5), time 8.78
  viable cell density: 2.01 10^6 cells/ml
[1]; 0.3 mM dipeptide (#5), time 9.82
  viable cell density: 3.9 10^6 cells/ml
[1]; 0.3 mM dipeptide (#5), time 10.99
  viable cell density: 6.065 10^6 cells/ml
[1]; 0.3 mM dipeptide (#5), time 12.02
  viable cell density: 8.21 10^6 cells/ml
[1]; 0.3 mM dipeptide (#5), time 12.75
  viable cell density: 7.135 10^6 cells/ml
[1]; 0.3 mM dipeptide (#5), time 13.89
  viable cell density: 5.13 10^6 cells/ml
[1]; 0.3 mM dipeptide (#5), time 14.74
  viable cell density: 5.54 10^6 cells/ml
[1]; 0.3 mM dipeptide (#5), time 15.79
  viable cell density: 4.075 10^6 cells/ml
[1]; 0.3 mM dipeptide (#5), time 16.89
  viable cell density: 2.775 10^6 cells/ml
[1]; 0.3 mM dipeptide (#5), time 18.06
  viable cell density: 1.825 10^6 cells/ml
[1]; 0.8 mM dipeptide (#4), time 0
  viable cell density: 0.27 10^6 cells/ml
[1]; 0.8 mM dipeptide (#4), time 0.89
  viable cell density: 0.565 10^6 cells/ml
[1]; 0.8 mM dipeptide (#4), time 3.08
  viable cell density: 2.285 10^6 cells/ml
[1]; 0.8 mM dipeptide (#4), time 3.71
  viable cell density: 3.4 10^6 cells/ml
[1]; 0.8 mM dipeptide (#4), time 4.08
  viable cell density: 0.365 10^6 cells/ml
[1]; 0.8 mM dipeptide (#4), time 4.70
  viable cell density: 0.665 10^6 cells/ml
[1]; 0.8 mM dipeptide (#4), time 5.69
  viable cell density: 1.545 10^6 cells/ml
[1]; 0.8 mM dipeptide (#4), time 6.88
  viable cell density: 3.36 10^6 cells/ml
[1]; 0.8 mM dipeptide (#4), time 7.04
  viable cell density: 0.32 10^6 cells/ml
[1]; 0.8 mM dipeptide (#4), time 7.80
  viable cell density: 1.12 10^6 cells/ml
[1]; 0.8 mM dipeptide (#4), time 8.78
  viable cell density: 1.86 10^6 cells/ml
[1]; 0.8 mM dipeptide (#4), time 9.82
  viable cell density: 3.6 10^6 cells/ml
[1]; 0.8 mM dipeptide (#4), time 10.99
  viable cell density: 6.31 10^6 cells/ml
[1]; 0.8 mM dipeptide (#4), time 12.02
  viable cell density: 7.805 10^6 cells/ml
[1]; 0.8 mM dipeptide (#4), time 12.75
  viable cell density: 7.545 10^6 cells/ml
[1]; 0.8 mM dipeptide (#4), time 13.89
  viable cell density: 5.86 10^6 cells/ml
[1]; 0.8 mM dipeptide (#4), time 14.74
  viable cell density: 5.26 10^6 cells/ml
[1]; 0.8 mM dipeptide (#4), time 15.79
  viable cell density: 4.065 10^6 cells/ml
[1]; 0.8 mM dipeptide (#4), time 16.89
  viable cell density: 3.175 10^6 cells/ml
[1]; 0.8 mM dipeptide (#4), time 18.06
  viable cell density: 2.3 10^6 cells/ml
[1]; 1.4 mM dipeptide (#3), time 0
  viable cell density: 0.265 10^6 cells/ml
[1]; 1.4 mM dipeptide (#3), time 0.89
  viable cell density: 0.495 10^6 cells/ml
[1]; 1.4 mM dipeptide (#3), time 3.08
  viable cell density: 1.8 10^6 cells/ml
[1]; 1.4 mM dipeptide (#3), time 3.71
  viable cell density: 2.415 10^6 cells/ml
[1]; 1.4 mM dipeptide (#3), time 4.08
  viable cell density: 0.315 10^6 cells/ml
[1]; 1.4 mM dipeptide (#3), time 4.70
  viable cell density: 0.65 10^6 cells/ml
[1]; 1.4 mM dipeptide (#3), time 5.69
  viable cell density: 1.47 10^6 cells/ml
[1]; 1.4 mM dipeptide (#3), time 6.88
  viable cell density: 3.365 10^6 cells/ml
[1]; 1.4 mM dipeptide (#3), time 7.04
  viable cell density: 0.33 10^6 cells/ml
[1]; 1.4 mM dipeptide (#3), time 7.80
  viable cell density: 0.77 10^6 cells/ml
[1]; 1.4 mM dipeptide (#3), time 8.78
  viable cell density: 1.615 10^6 cells/ml
[1]; 1.4 mM dipeptide (#3), time 9.82
  viable cell density: 2.97 10^6 cells/ml
[1]; 1.4 mM dipeptide (#3), time 10.99
  viable cell density: 5.25 10^6 cells/ml
[1]; 1.4 mM dipeptide (#3), time 12.02
  viable cell density: 8.29 10^6 cells/ml
[1]; 1.4 mM dipeptide (#3), time 12.75
  viable cell density: 9.23 10^6 cells/ml
[1]; 1.4 mM dipeptide (#3), time 13.89
  viable cell density: 8.975 10^6 cells/ml
[1]; 1.4 mM dipeptide (#3), time 14.74
  viable cell density: 9.58 10^6 cells/ml
[1]; 1.4 mM dipeptide (#3), time 15.79
  viable cell density: 9.535 10^6 cells/ml
[1]; 1.4 mM dipeptide (#3), time 16.89
  viable cell density: 7.395 10^6 cells/ml
[1]; 1.4 mM dipeptide (#3), time 18.06
  viable cell density: 5.985 10^6 cells/ml
[1]; 4.3 mM dipeptide (#2), time 0
  viable cell density: 0.27 10^6 cells/ml
[1]; 4.3 mM dipeptide (#2), time 0.89
  viable cell density: 0.51 10^6 cells/ml
[1]; 4.3 mM dipeptide (#2), time 3.08
  viable cell density: 1.615 10^6 cells/ml
[1]; 4.3 mM dipeptide (#2), time 3.71
  viable cell density: 2.13 10^6 cells/ml
[1]; 4.3 mM dipeptide (#2), time 4.08
  viable cell density: 0.3 10^6 cells/ml
[1]; 4.3 mM dipeptide (#2), time 4.70
  viable cell density: 0.54 10^6 cells/ml
[1]; 4.3 mM dipeptide (#2), time 5.69
  viable cell density: 1.545 10^6 cells/ml
[1]; 4.3 mM dipeptide (#2), time 6.88
  viable cell density: 3.555 10^6 cells/ml
[1]; 4.3 mM dipeptide (#2), time 7.04
  viable cell density: 0.305 10^6 cells/ml
[1]; 4.3 mM dipeptide (#2), time 7.80
  viable cell density: 1.045 10^6 cells/ml
[1]; 4.3 mM dipeptide (#2), time 8.78
  viable cell density: 1.545 10^6 cells/ml
[1]; 4.3 mM dipeptide (#2), time 9.82
  viable cell density: 2.8 10^6 cells/ml
[1]; 4.3 mM dipeptide (#2), time 10.99
  viable cell density: 5.115 10^6 cells/ml
[1]; 4.3 mM dipeptide (#2), time 12.02
  viable cell density: 7.215 10^6 cells/ml
[1]; 4.3 mM dipeptide (#2), time 12.75
  viable cell density: 9.42 10^6 cells/ml
[1]; 4.3 mM dipeptide (#2), time 13.89
  viable cell density: 9.645 10^6 cells/ml
[1]; 4.3 mM dipeptide (#2), time 14.74
  viable cell density: 9.985 10^6 cells/ml
[1]; 4.3 mM dipeptide (#2), time 15.79
  viable cell density: 11.08 10^6 cells/ml
[1]; 4.3 mM dipeptide (#2), time 16.89
  viable cell density: 9.195 10^6 cells/ml
[1]; 4.3 mM dipeptide (#2), time 18.06
  viable cell density: 8.905 10^6 cells/ml
[1]; 5.4 mM dipeptide (#1), time 0
  viable cell density: 0.28 10^6 cells/ml
[1]; 5.4 mM dipeptide (#1), time 0.89
  viable cell density: 0.59 10^6 cells/ml
[1]; 5.4 mM dipeptide (#1), time 3.08
  viable cell density: 1.38 10^6 cells/ml
[1]; 5.4 mM dipeptide (#1), time 3.71
  viable cell density: 1.64 10^6 cells/ml
[1]; 5.4 mM dipeptide (#1), time 4.08
  viable cell density: 0.365 10^6 cells/ml
[1]; 5.4 mM dipeptide (#1), time 4.70
  viable cell density: 0.56 10^6 cells/ml
[1]; 5.4 mM dipeptide (#1), time 5.69
  viable cell density: 1.33 10^6 cells/ml
[1]; 5.4 mM dipeptide (#1), time 6.88
  viable cell density: 3.16 10^6 cells/ml
[1]; 5.4 mM dipeptide (#1), time 7.04
  viable cell density: 0.335 10^6 cells/ml
[1]; 5.4 mM dipeptide (#1), time 7.80
  viable cell density: 0.665 10^6 cells/ml
[1]; 5.4 mM dipeptide (#1), time 8.78
  viable cell density: 1.26 10^6 cells/ml
[1]; 5.4 mM dipeptide (#1), time 9.82
  viable cell density: 2.67 10^6 cells/ml
[1]; 5.4 mM dipeptide (#1), time 10.99
  viable cell density: 3.57 10^6 cells/ml
[1]; 5.4 mM dipeptide (#1), time 12.02
  viable cell density: 4.91 10^6 cells/ml
[1]; 5.4 mM dipeptide (#1), time 12.75
  viable cell density: 6.415 10^6 cells/ml
[1]; 5.4 mM dipeptide (#1), time 13.89
  viable cell density: 8.285 10^6 cells/ml
[1]; 5.4 mM dipeptide (#1), time 14.74
  viable cell density: 11.695 10^6 cells/ml
[1]; 5.4 mM dipeptide (#1), time 15.79
  viable cell density: 10.075 10^6 cells/ml
[1]; 5.4 mM dipeptide (#1), time 16.89
  viable cell density: 7.995 10^6 cells/ml
[1]; 5.4 mM dipeptide (#1), time 18.06
  viable cell density: 6.6 10^6 cells/ml
[1]; cultivation #1, all Asn provided in the form of the dipeptide (5.4 mM), compared among cultivations #1-6
  maximum viable cell density (third passage): greatest
[2]; high concentrations of the dipeptide (cultivations #1, #2, #3)
  cell viability at day 18: relatively high viability
[2]; lower concentration of the dipeptide (cultivations #4, #5)
  cell viability at the end of experiment: significantly reduced cell viability
